Like-named read-outs stand apart in the source and are kept apart here.
Tests used:
C666-1 cells = experiment: WST-1 cell viability assay, C666-1 cells; conditions: for IC50: read-out: IC 50, NPC cell viability, C666-1 Cells
Experimental: Cell viability assays were performed in 96 well plastic microplates, either uncoated (C666-1) or coated with Poly HEMA (C15). For each cell line, the number of cells distributed per well was optimized in order to achieve the highest metabolic activity while keeping exponential growth till the end of the test. C15 and C666-1 cells were seeded at 10^5 and 35×10^3/well, respectively, in 150 μl culture medium. Following an overnight pre-incubation culture, serial dilutions of chemotherapy drugs (50 μl; final concentration 50 nM-50 μM) were added in quadruplicate to a […]. At the completion of a 72 h incubation with tested pharmacological agents, cell viability was evaluated using the WST-1 assay (Roche Molecular, France). The WST-1 assay is based on the cleavage of the tetrazolium salt by mitochondrial dehydrogenases. […] Cells were incubated with 10 μl of the WST-1 reagent added to the culture medium, for 3 to 6 h, at 37° C. The plates were subsequently read on an ELISA reader (Dynatech MR7000, Guernsey channel Island, USA) using a 490 nm filter. The mean and standard deviation were determined for quadruplicate samples. For each compound, values falling in the linear part of sigmoid curve were included in a linear regression analysis and were used to estimate the 50% inhibitory concentration (IC 50). Measurement of caspase activity in drug treated NPC cells.
(Ali, H. et al., Chemotherapy in advanced nasopharyngeal cancer. Oncology (Huntingt), 14:1223-1230, 2000.) Their short term cytotoxic effect was assessed in vitro on the C15 and C666-1 cells, using a cell viability assay based on WST reduction. Cultured cells were incubated in the presence of various concentrations of each therapeutic agent for 72 hours.

C15 cells [1] = conditions: for IC50: read-out: IC 50, NPC cell viability, C15 Cells, 72 h incubation, WST-1, PolyHEMA-coated plates
[2] = molecular target: T1, GGTase I from human brain (Homo sapiens, UniProt P49354+P53609); experiment: In vitro GGTase I assay ([3H]-geranylgeranylation of H-Ras CVLL); format: biochemical; conditions: read-out: Enzyme assays IC50 GGTase I
T1 construct: GGTase I from human brain; purchased ABS reagent; host or cells: human brain (tissue-derived, not recombinant)
Experimental: (§1) The effect of Compound A and other drugs on FTase activity was assayed in vitro with FTase from human brain cytosol (ABS Reagents, Wilmington, Del.) as target enzyme and recombinant human H-Ras protein containing the wild type CAAX box (Biomol, Plymouth Meeting, Pa.) as a specific substrate. The incubation mixture (25 μl) for [^3H]-farnesylation contained 50 mM Tris-HCl (pH 7.5), 5 mM dithiothreitol, 20 μM ZnCl2, 40 mM MgCl2, 0.6 μM [^3H]-farnesyl pyrophosphate (22.3 Ci/mmol) (NEN, Boston, Mass.), 4 μM recombinant H-Ras and 10 μg FTase. After 60 min at 37° C., the reaction was stopped by adding 150 μl of absolute ethanol. The mixture was then filtered on Unifilter GF/B microplate (Packard, Rungis, France) and washed 6 times with ethanol prior to scintillation counting. After adding 50 μl of Microscint 0, plates were counted with a Packard Top Count scintillation counter. Drug effects on GGTase I activity were assayed by a similar method with GGTase I from human brain (ABS reagent) as target enzyme and human recombinant H-Ras containing a mutated CAAX box (CVLL)(Biomol). The incubation mixture contained 4 μM recombinant H-Ras, 0.6 μM [^3H]-geranylgeranyl-pyrophosphate (19.3 Ci/mmol) (NEN) and 100 μg of GGTase I. GGTI-286 was used as a positive control for the GGTase-I inhibition assay. Results were expressed as the concentrations of drugs required to inhibit 50% of prenyl-incorporation into the recombinant H-Ras proteins (IC50). Assessment of farnesyl-transferase inhibition in intact cells.

[3] = molecular target: T2, FTase from human brain cytosol (Homo sapiens, UniProt P49354+P49356); experiment: In vitro FTase assay ([3H]-farnesylation of H-Ras); format: biochemical; conditions: mean of 2 experiments (lowest-highest); read-out: Enzyme assays IC50 FTase
T2 construct: FTase from human brain cytosol; purchased ABS Reagents, Wilmington, Del; host or cells: human brain cytosol (tissue-derived, not recombinant)
Experimental: as §1

CNE1 NPC cell line = conditions: CNE1, EBV-negative line; cited from earlier work
C15 cells [4] = experiment: TRAF1 cleavage Western blot, C15 cells; format: cell-based, human; conditions: 24 h, doxorubicin 1 μM, Compound A 5 μM
Experimental: FIG. 6. Induction of TRAF1-cleavage in C15 cells treated with doxorubicin combined to Compound A. A: Diagram of Fas-mediated TRAF-1-cleavage as reported by Leo et al. (2001). The locations of target peptides used for production of the H-3 monoclonal and H-132 polyclonal antibody are indicated by hatched boxes. The peptide targeted by H-3 was entirely contained in fragment II whereas the peptide targeted by H132 was mainly co-linear with fragment I. B: C15 cells were treated for 24 h with doxorubicin (1 μM), Compound A […] or a combination of both. Control cells were treated with the Fas-agonist antibody 7C11. Cell lysates (50 μg protein per lane) were separated on a 8-16% SDS-PAGE linear gradient prior to Western Blot analysis with anti-TRAF-1 antibodies. Both antibodies detected a main band at 46 kd Additional bands corresponding to fragments of smaller sizes were visible, mainly in samples treated with 7C11 or the combination of doxorubicin and Compound A. In the extracts of cells treated with 7C11, these smaller fragments had apparent molecular weights of 29 kD (H-3) and 24 kD (H-132) which were compatible with the sizes of TRAF1 fragments reported by Leo et al. (2001). Similar results were obtained in three similar experiments.

C15 cells [5] = experiment: cells; conditions: Homo sapiens, 72 h, read-out: IC 50, NPC cell viability, C15 Cells
C15 cells [6] = experiment: PARP cleavage Western blot, C15 cells; format: cell-based, human; conditions: doxorubicin 1 μM, Compound A 5 μM, combination at 24 h
Experimental: FIG. 5. […] Corresponding cell lysates (50 μg protein per lane) were separated by 7.5% SDS-PAGE and analyzed by Western Blot with an anti-PARP monoclonal antibody. The cleaved product of PARP was at 85 kD, as shown in the positive-control extract derived from C15 cells treated with the CD95 agonist-antibody 7C11.

[7] = system: farnesyl-transferase in intact MIAPaca cells; experiment: Farnesyl-transferase inhibition in intact cells (H-Ras and N-Ras Western blot); format: cell-based, human; conditions: 48 h
Experimental: The effect of Compound A on farnesyl-transferase in intact cells was assayed in MIAPaca cells, a human pancreatic carcinoma cell line which was purchased from the ATCC. Both H-Ras and N-Ras were investigated as reference substrates of the endogenous farnesyl-transferase. Total protein extracts were prepared from MIAPaca cells treated for 48 h with increasing concentrations of Compound A (1-100 nM) along with extracts from untreated cells as a negative control. A positive control was provided by cells treated with mevastatine (30 μM). Mevastatine is an HMG-CoA reductase inhibitor which blocks the synthesis of farnesyl metabolic precursors. Cell extracts were separated by SDS-polyacrylamide gels (15%) and analyzed by Western blot with polyclonal antibodies directed to H-Ras and N-Ras (Santa Cruz, Heidelberg, Germany). Farnesyl-transferase inhibition was assessed indirectly by detection of non-prenylated forms of H-Ras and N-Ras which were slightly shifted toward higher molecular weights and reacted more efficiently with antibodies. Assessment of drug effect on NPC cell viability.

C15 cells [8] = experiment: Nuclear morphology, Hoechst 33342 staining, C15 cells; format: cell-based, human; conditions: 48 h to 72 h, doxorubicin 1 μM, Compound A 5 μM
Description: FIG. 3. […] A: non-treated cells.

[9] = system: TWO1 and TWO39 NPC cell lines; conditions: TWO1 and TWO39, EBV-negative lines; cited from earlier work
[10] = mean of 2 experiments (lowest-highest)

Q: For `O=c1[nH]cc(F)c(=O)[nH]1` [5-fluorouracyl], which “sensitivity to short term cytotoxic effect” value (shortened to “sensitivity”) (C666-1 cells) is on record?
A: No significant effects

Q: And the IC50 (C666-1 cells; 72 h incubation, WST-1)?
A: ≥ 5000 nM

Q: And the “sensitivity” value (C15 cells [1])?
A: No significant effects

Q: What about the IC50 (C15 cells [1]) of the same molecule?
A: ≥ 5000 nM

Q: Which IC50 [2, 10] does the source give for `CC[C@H](C)[C@@H](CN1CSC(C)(C)[C@H]1C(=O)N[C@@H](CCSC)C(=O)OC)NC[C@@H](N)CS` [BIM-46068] here?
A: 268000 nM

Q: What about the IC50 [3] of the same molecule?
A: 91 nM

Q: With `N.N.[Cl][Pt][Cl]` [Cis-platinum, cis-platin] as the molecule, how does the IC50 (C666-1 cells; 72 h incubation, WST-1) read?
A: 5000 nM

Q: And the “enhancement of cytotoxicity by combination with Compound A” value (C15 cells [1])?
A: not observed

Q: What about the IC50 (C15 cells [1]) of the same molecule?
A: 1000 nM

Q: And the “concentration inducing growth arrest” value (CNE1 NPC cell line)?
A: about 1 μM

Q: With `COc1cc(Cn2cncc2CC(=O)N2Cc3nc(-c4ccccc4Br)cn3Cc3c(F)cccc32)ccc1C#N` [Compound A] as the molecule, how does the TRAF1 cleavage (C15 cells [4]) read?
A: no modifications

Q: What about the IC50 (C666-1 cells; Homo sapiens, C6661, 72 h) of the same molecule?
A: 10000 nM

Q: What about the IC50 [2] of the same molecule?
A: > 100000 nM

Q: What about the IC50 (C15 cells [5]) of the same molecule?
A: 10000 nM

Q: And the PARP cleavage (C15 cells [6])?
A: Moderate PARP cleavage

Q: And the IC50 [3]?
A: 15 nM

Q: And the “concentration giving significant inhibition of H-Ras and N-Ras farnesylation” value [7]?
A: 50 nM

Q: What about the “nuclear apoptosis morphological changes” value (C15 cells [8]) of the same molecule?
A: much less apparent

Q: Which TRAF1 cleavage (C15 cells [4]) does the source give for `COc1cccc2c1C(=O)c1c(O)c3c(c(O)c1C2=O)C[C@@](O)(C(=O)CO)C[C@@H]3O[C@H]1C[C@H](N)[C@H](O)[C@H](C)O1` [Doxorubicin, doxorubicin] here?
A: no modifications

Q: What about the IC50 (C666-1 cells; Homo sapiens, C6661, 72 h) of the same molecule?
A: 200 nM

Q: What about the IC50 (C15 cells [5]) of the same molecule?
A: 150 nM

Q: What about the PARP cleavage (C15 cells [6]) of the same molecule?
A: Moderate PARP cleavage

Q: What about the “nuclear apoptosis morphological changes” value (C15 cells [8]) of the same molecule?
A: much less apparent

Q: What does the source list for `COC(=O)[C@H](CCSC)NC(=O)c1ccc(NC[C@@H](N)CS)cc1-c1ccccc1` [FTI-277]?
A: IC50 [2, 10]: 314 nM; IC50 [3]: 30 nM

Q: For `COC(=O)[C@H](CC(C)C)NC(=O)c1ccc(NC[C@@H](N)CS)cc1-c1ccccc1` [GGTI-286], which IC50 [2, 10] is on record?
A: 114 nM

Q: And the IC50 [3]?
A: 365 nM

Q: With `CC(=O)O[C@H]1C(=O)[C@@]2(C)[C@H]([C@H](OC(=O)c3ccccc3)[C@]3(O)C[C@H](OC(=O)[C@H](O)[C@@H](NC(=O)c4ccccc4)c4ccccc4)C(C)=C1C3(C)C)[C@]1(OC(C)=O)CO[C@@H]1C[C@@H]2O` [Taxol] as the molecule, how does the “effect on NPC cell lines” value [9] read?
A: induce growth arrest and/or apoptosis

Q: And the “sensitivity” value (C666-1 cells)?
A: highly sensitive

Q: And the IC50 (C666-1 cells; Homo sapiens, C6661, 72 h)?
A: 200 nM

Q: What about the IC50 (C15 cells [5]) of the same molecule?
A: ≥ 25000 nM

Q: And the “sensitivity” value (C15 cells [1])?
A: totally resistant

Source: patent US20060166907A1, “Composition for the treatment of nasopharyngeal carcinoma and method of use thereof” (priority 2002, published 2006)
